pIC50: −log10 of the molar value. Read-outs that look alike come from different tables or passages of the source.
Tests used:
human KRAS G12C protein = target: T1, human KRAS G12C protein (Homo sapiens, UniProt P01116, G12C); assay: Thermal shift: melting temperature of KRAS G12C protein; type: binding; conditions: for Tm (° C.): KRAS G12C protein 5.37 μM with compound 10 μM, 1 hour incubation; for ΔTm at 10 µM / ΔTm (° C.): compound 10 μM, Tm minus Tm of DMSO solvent control
T1 construct: purchased Beijing SinoBiological Co., Ltd. 12259-H07E2
Description: A solution containing […] (pH 7.5), 1 mM DTT, 5×SYPRO Orange and 150 mM NaCl was prepared as the experimental buffer, and a final concentration of 5.37 μM human KRAS G12C protein was added thereto. […] After incubating at room temperature in the dark for 1 hour, the PCR tube was put into the PCR instrument, QuantStudio Software v1.3 was opened, and the melting temperature of KRAS G12C protein in different treatment groups was detected by melt curve function (heating from 25° C. to 95° C., 0.03° C./s). The experimental data file of PCR instrument was imported into thermal shift software, and the melting temperature (Tm) of each treatment group was obtained, and the change value of melting temperature (Δ Tm) was obtained by subtracting the Tm of DMSO solvent control group.

[1] = test system: NCI-H358 cells (KRAS G12C mutant cell line); assay: Inhibition of NCI-H358 cell proliferation (CellTiter-Glo, 72 h); type: cell-based, human
Excerpt: (§1) As a preferred embodiment of the present disclosure, the detection method of NCI-H358 cell proliferation inhibitory activity and Mia PaCa-2 cell proliferation inhibitory activity is as follows: through cell culture, adding different concentrations of compound solutions to the cultured cells, continuing the culture for a period of time and measuring the cell proliferation; • further, the method of cell culture is: adjusting the cells to a suitable cell concentration with complete medium and spreading the cell suspension in well plates for culture; preferably, the culture conditions are 37° C., 5% CO2 incubator overnight; preferably, the cell suspension is spread in 96-well plates, 48-well plates, 24-well plates, 12-well plates or 6-well plates, more preferably 96-well plates; preferably, the suitable cell concentration is 1500-4000 cells/well, with 90 μL of cell suspension added to each well; • further, the compound solution is prepared with DMSO and may be further diluted with medium; preferably, the compound solution has a concentration gradient starting from 100 μM at 4-fold dilution, more preferably starting from 30 μM at 4-fold dilution, most preferably starting from 10 μM at 4-fold dilution; • further, the volume of the compound solution or solvent added to each well is 1-10 μL, preferably 10 μL; • further, after adding the compound solution, the conditions for continuing the culture are 37° C., 5% CO2 incubator; preferably, the culture time is 24-72 h, more preferably 72 h; • further, the method for measuring cell proliferation is MTT, CCK8, CellTiter-Glo; preferably the method is CellTiter-Glo; • further, the cell proliferation is read using a microplate reader, more preferably a BioTek Synergy H1 microplate reader.
(§2) When NCI-H358 or Mia PaCa-2 cells were cultured to the appropriate fusion level, the NCI-H358 or Mia PaCa-2 cells were collected, and the cells were adjusted to the appropriate cell concentration using a complete medium, and the cell suspension was spread in a 96-well plate, 90 μL per well, and placed in a 37° C., 5% CO2 incubator overnight; and compound solutions of different concentrations were prepared using DMSO and culture medium; and a solvent control was set, the compound solution was added to a 96-well plate, 10 μL per well, at 37° C. in a 5% CO2 incubator for 72 hours; CellTiter-Glo solution was added thereto and the mixture was mixed well by shaking, incubated for 10 min in the dark, and read by BioTek Synergy H1 microplate reader.
(§3) The luminescence signal values were used to calculate the inhibition rate, the concentration and the inhibition rate were fitted to a nonlinear regression curve using Graphpad Prism software, then the IC50 value was obtained.

[2] = test system: Mia PaCa-2 cells (KRAS G12C mutant cell line); assay: Inhibition of Mia PaCa-2 cell proliferation (CellTiter-Glo, 72 h); type: cell-based, human
Excerpt: as §1, §2, §3

SMILES	Tm (° C.) (human KRAS G12C protein)	ΔTm at 10 µM (human KRAS G12C protein)	pIC50 ([1]; Homo sapiens)	pIC50 ([2]; Homo sapiens)	ΔTm (° C.) (human KRAS G12C protein)	pIC50 [1]	pIC50 [2]
C=CC(=O)N1CCN(c2nc(=O)n(-c3c(SC)ccnc3C(C)C)c3nc(-c4c(O)cccc4F)c(F)cc23)[C@@H](C)C1 [Embodiment 60, 4-((S)-4-acryloyl-2-methylpiperazin-1-yl)-6-fluoro-7-(2-fluoro-6-hydroxyphenyl)-1-(2-isopropyl-4-(methylthio)pyridin-3-yl)pyrido[2,3-d]pyrimidin-2(1H)-one]	60.2 °C	11.6 °C	7.40	7.22	–	–	–
C=CC(=O)N1CCN(c2nc(=O)n(-c3c(C)ccnc3C(C)C)c3nc(-c4c(F)cccc4SC)c(F)cc23)[C@@H](C)C1 [Embodiment 75, (S)-4-(4-acryloyl-2-methylpiperazin-1-yl)-6-fluoro-7-(2-fluoro-6-(methylthio)phenyl)-1-(2-isopropyl-4-methylpyridin-3-yl) pyrido[2,3-d]pyrimidin-2 (1H)-one]	61.2 °C	10.6 °C	7.62	7.47	–	–	–
C=CC(=O)N1CCN(c2nc(=O)n(-c3c(C)ccnc3C(C)C)c3nc(-c4c(F)cccc4S(C)(=O)=O)c(F)cc23)[C@@H](C)C1 [Embodiment 77, (S)-4-(4-acryloyl-2-methylpiperazin-1-yl)-6-fluoro-1-(2-isopropyl-4-methylpyridin-3-yl)-7-(2-(methylsulfonyl-6-fluoro)phenyl) pyrido [2,3-d] pyrimidin-2 (1H)-one]	60.4 °C	9.8 °C	6.93	6.92	–	–	–
C=CC(=O)N1CCN(c2nc(=O)n(-c3c(C)ccnc3CC(C)C)c3nc(-c4c(F)cccc4SCC)c(F)cc23)[C@@H](C)C1 [Embodiment 118]	59.0 °C	–	–	–	8.4 °C	7.05	7.09
C=CC(=O)N1CCN(c2nc(=O)n(-c3c(SC)ccnc3C(C)C)c3nc(-c4c(O)cccc4F)c(Cl)cc23)[C@@H](C)C1 [Embodiment 130]	61.5 °C	–	–	–	10.9 °C	7.85	7.39
C=CC(=O)N1CCN(c2nc(=O)n(-c3c(SC)ccnc3C(C)C)c3nc(-c4c(F)cccc4SC)c(F)cc23)[C@@H](C)C1 [Embodiment 131]	61.2 °C	–	–	–	11.7 °C	7.32	7.33
C=CC(=O)N1CCN(c2nc(=O)n(-c3c(C)ccnc3C(C)C)c3nc(-c4ccccc4SC)c(F)cc23)[C@@H](C)C1 [Embodiment 138]	59.4 °C	–	–	–	8.8 °C	7.17	6.98
C=CC(=O)N1CCN(c2nc(=O)n(-c3c(SC)ccnc3C(C)C)c3nc(-c4c(N)ccc(Cl)c4F)c(Cl)cc23)[C@@H](C)C1 [Embodiment 150, 4-((S)-4-acryloyl-2-methylpiperazin-1-yl)-7-(6-amino-3-chloro-2-fluorophenyl)-6-chloro-1-(2-isopropyl-4-(methylthio)pyridin-3-yl) pyrido [2,3-d] pyrimidin-2 (1H)-one]	60.2 °C	13.4 °C	8.27	8.07	–	–	–
C=CC(=O)N1CCN(c2nc(=O)n(-c3c(SC)ccnc3C(C)C)c3nc(-c4c(N)ccc(Cl)c4F)c(F)cc23)[C@@H](C)C1 [Embodiment 151, 4-((S)-4-acryloyl-2-methylpiperazin-1-yl)-7-(6-amino-3-chloro-2-fluorophenyl)-6-fluoro-1-(2-isopropyl-4-(methylthio)pyridin-3-yl)pyrido[2,3-d]pyrimidin-2(1H)-one]	–	–	7.41	7.23	–	–	–
C=CC(=O)N1CCN(c2nc(=O)n(-c3c(SC)cc(C)nc3C(C)C)c3nc(-c4c(O)cccc4F)c(F)cc23)[C@@H](C)C1 [Embodiment 152, 4-((S)-4-acryloyl-2-methylpiperazin-1-yl)-6-fluoro-7-(2-fluoro-6-hydroxyphenyl)-1-(2-isopropyl-6-methyl-4-(methylthio)pyridin-3-yl) pyrido [2,3-d] pyrimidin-2 (1H)-one]	60.0 °C	11.4 °C	7.35	7.04	–	–	–
C=CC(=O)N1C[C@H](C)N(c2nc(=O)n(-c3c(SC)ccnc3C(C)C)c3nc(-c4c(O)cccc4F)c(Cl)cc23)C[C@H]1C [Embodiment 166, 4-((2S, 5R)-4-acryloyl-2,5-dimethylpiperazin-1-yl)-6-chloro-7-(2-fluoro-6-hydroxyphenyl)-1-(2-isopropyl-4-(methylthio)pyridin-3-yl) pyrido [2,3-d] pyrimidin-2 (1H)-one]	–	–	7.80	7.64	–	–	–

Results, then the compound that gave them:

Tm (° C.) (human KRAS G12C protein)	ΔTm at 10 µM (human KRAS G12C protein)	pIC50 ([1]; Homo sapiens)	pIC50 ([2]; Homo sapiens)	ΔTm (° C.) (human KRAS G12C protein)	pIC50 [1]	pIC50 [2]	SMILES
–	–	7.17	7.12	–	–	–	C=CC(=O)N1CCN(c2nc(=O)n(-c3c(SC)ccnc3C(C)C)c3nc(-c4c(O)ccc(F)c4F)c(F)cc23)[C@@H](C)C1 [Embodiment 153, 4-((S)-4-acryloyl-2-methylpiperazin-1-yl)-7-(2,3-difluoro-6-hydroxyphenyl)-6-fluoro-1-(2-isopropyl-4-(methylthio)pyridin-3-yl) pyrido [2,3-d] pyrimidin-2 (1H)-one]
–	–	7.10	7.17	–	–	–	C=CC(=O)N1CCN(c2nc(=O)n(-c3c(SC)ccnc3C(C)C)c3nc(-c4c(F)cccc4F)c(F)cc23)[C@@H](C)C1 [Embodiment 154, (S)-4-(4-acryloyl-2-methylpiperazin-1-yl)-7-(2,6-difluorophenyl)-6-fluoro-1-(2-isopropyl-4-(methylthio)pyridin-3-yl)pyrido[2,3-d]pyrimidin-2(1H)-one]
60.9 °C	11.1 °C	7.62	7.59	–	–	–	C=CC(=O)N1CCN(c2nc(=O)n(-c3c(S(C)(=O)=O)ccnc3C(C)C)c3nc(-c4c(O)cccc4F)c(Cl)cc23)[C@@H](C)C1 [Embodiment 155, 4-((S)-4-acryloyl-2-methylpiperazin-1-yl)-6-chloro-7-(2-fluoro-6-hydroxyphenyl)-1-(2-isopropyl-4-(methylsulfonyl)pyridin-3-yl) pyrido [2,3-d] pyrimidin-2 (1H)-one]
–	–	–	–	–	7.10	7.17	C=CC(=O)N1CCN(c2nc(=O)n(-c3c(SC)ccnc3C(C)C)c3nc(-c4c(F)cccc4F)c(F)cc23)[C@@H](C)C1 [Embodiment 169, (S)-4-(4-acryloyl-2-methylpiperazin-1-yl)-7-(2,6-difluorophenyl)-6-fluoro-1-(2-isopropyl-4-(methylthio)pyridin-3-yl) pyrido [2,3-d] pyrimidin-2 (1H)-one]
–	–	7.49	7.80	–	–	–	C=CC(=O)N1CCN(c2nc(=O)n(-c3c(SC)ccnc3C(C)C)c3nc(-c4c(N)c(Cl)cc(Cl)c4F)c(Cl)cc23)[C@@H](C)C1 [Embodiment 191, 4-((s)-4-acryloyl-2-methylpiperazine-1-yl)-7-(2-amino-3,5-dichloro-6-fluorophenyl)-6-chloro-1-(2-isopropyl-4-(methylthio)pyridin-3-yl) pyrido [2,3-d] pyrimidin-2 (1H)-one]
–	–	7.54	7.89	–	–	–	C=CC(=O)N1CCN(c2nc(=O)n(-c3c([S+](C)[O-])ccnc3C(C)C)c3nc(-c4c(N)c(Cl)cc(Cl)c4F)c(Cl)cc23)[C@@H](C)C1 (stereo partly drawn) [Embodiment 192, 4-((S)-4-acryloyl-2-methylpiperazin-1-yl)-7-(2-amino-3,5-dichloro-6-fluorophenyl)-6-chloro-1-(2-isopropyl-4-(methylsulfinyl)pyridin-3-yl) pyrido [2,3-d] pyrimidin-2 (1H)-one]
